According to ChEMBL document CHEMBL5107953, “SAR study of 4-arylazo-3,5-diamino-1H-pyrazoles: identification of small molecules that induce dispersal of Pseudomonas aeruginosa biofilms” (2021):

These molecules were tested on Pseudomonas aeruginosa (assay: Anti-biofilm activity against Pseudomonas aeruginosa PAO1 harboring wspF gene mutation assessed as reduction on c-di-GMP level by measuring GFP fluorescence at 100 uM incubated for 24 hrs […]).
Assay type: functional
Design: scale not given: the % may be the effect or the level left

| Compound | Activity [%] |
| --- | --- |
| O=C1NOC(=O)/C1=N\Nc1ccccc1F | 0 |
| N=C1NN=C(N)/C1=N/Nc1cc(Br)ccc1Br | 0 |
| N=C1/C(=N\Nc2ccccc2F)C(N)=NN1c1ccc(C(=O)O)cc1 | 0 |
| N=C1NN=C(N)/C1=N/Nc1cc(Br)cc(Br)c1 | 0 |
| N=C1NN=C(N)/C1=N/Nc1c(Br)cccc1Br | 0 |
| N=C1NN=C(N)/C1=N/Nc1ccccc1O | 55 |
| N=C1/C(=N\Nc2ccccc2F)C(N)=NN1C(=O)c1ccncc1 | 40 |
| O=C1NNC(=O)C1=NNc1ccccc1F | 0 |
| N=C1/C(=N\Nc2ccccc2F)C(N)=NN1CCO | 0 |
| N=C1NN=C(N)/C1=N/Nc1cccc(F)c1F | 48 |
| N=C1NN=C(N)/C1=N/Nc1ccccc1Br | 0 |
| CC(=O)/N=C1\NN=C(NC(C)=O)\C1=N\Nc1ccccc1F | 0 |
| N=C1NN=C(N)/C1=N/Nc1c(F)cc(F)cc1F | 30 |
| N=C1/C(=N\Nc2ccccc2F)C(N)=NN1S(=O)(=O)c1ccccc1 | 0 |
| N=C1NN=C(N)/C1=N/Nc1cc(F)ccc1Br | 0 |
| N=C1ON=C(N)/C1=N/Nc1c(F)cccc1F | 0 |
| N=C1NN=C(N)/C1=N/Nc1ccccc1F | 83 |
| N=C1NN=C(N)/C1=N/Nc1ccc(F)cc1F | 41 |
| N=C1ON=C(N)/C1=N/Nc1c(O)cccc1F | 0 |

| Compound | Activity [%] |
| --- | --- |
| N=C1ONC(=O)/C1=N\Nc1ccccc1F | 0 |
| NC1=NNC(=O)/C1=N\Nc1ccccc1F | 0 |
| NNc1ccccc1F | 0 |
| N=C1NN=C(N)/C1=N/Nc1ccccc1Cl | 0 |
| N=C1ON=C(N)/C1=N/Nc1cc(F)ccc1F | 0 |
| NC1=NOC(=O)/C1=N\Nc1ccccc1F | 0 |
| N=C1/C(=N\Nc2ccccc2F)C(N)=NN1S(=O)(=O)c1ccc(N)cc1 | 0 |
| COc1ccc(NN=C2C(N)=NN=C2N)cc1 | 0 |
| N=C1NN=C(N)/C1=N/Nc1ccncc1F | 0 |
| N=C1NN=C(N)/C1=N/Nc1cccnc1F | 13 |
| N=C1NN=C(N)/C1=N/Nc1c(F)ccc(F)c1F | 61 |
| Cc1cccc(F)c1N/N=C1\C(=N)NN=C1N | 0 |
| N=C1NN=C(N)/C1=N/Nc1c(O)cccc1O | 15 |
| N=C1/C(=N\Nc2ccccc2F)C(N)=NN1c1ccc(S(N)(=O)=O)cc1 | 0 |
| N=C1NN=C(N)/C1=N/Nc1c(O)cccc1F | 75 |
| N=C1/C(=N\Nc2ccccc2F)C(N)=NN1c1ccc(F)cc1 | 0 |
| Cc1ccc(N/N=C2\C(=N)NN=C2N)c(F)c1 | 0 |
| N=C1NN=C(N)/C1=N/Nc1ccccc1I | 0 |
| N=C1/C(=N\Nc2ccccc2F)C(N)=NN1C(=O)c1ccccc1 | 0 |

| Compound | Activity [%] |
| --- | --- |
| N=C1ON=C(N)/C1=N/Nc1ccccc1F | 0 |
| N=C1NN=C(N)/C1=N/Nc1cccc(F)c1 | 73 |
| N=C1NN=C(N)/C1=N/Nc1ccc(F)cc1 | 44 |
| N=C1NN=C(N)C1c1ccc2ccccc2n1 (stereo unspecified) | 0 |
| CC(=O)NC1=NN(C(C)=O)C(=N)/C1=N\Nc1ccccc1F | 0 |
| N=C1NN=C(N)/C1=N/Nc1c(F)cccc1Br | 0 |
| N=C1NN=C(N)/C1=N/Nc1cccc(O)c1 | 0 |
| N=C1NN=C(N)/C1=N/Nc1cc(Br)ccc1F | 0 |
| N=C1NN=C(N)/C1=N/Nc1c(F)cccc1F | 77 |
| N=C1/C(=N\Nc2ccccc2F)C(N)=NN1Cc1ccccc1 | 0 |
| N=C1ON=C(N)/C1=N/Nc1ccccc1O | 0 |
| N=C1NN=C(N)/C1=N/Nc1ccccc1N | 0 |
| N=C1NN=C(N)/C1=N/Nc1ccc(F)c(F)c1F | 0 |
| N=C1NN=C(N)/C1=N/Nc1cc(F)cc(F)c1 | 35 |
| N=C1NN=C(N)/C1=N/Nc1ccccc1 | 71 |
| COc1ccccc1N/N=C1\C(=N)NN=C1N | 0 |
| N=C1NN=C(N)/C1=N/Nc1ccccc1C(F)(F)F | 0 |
| N=C1NN=C(N)/C1=N/Nc1cc(F)ccc1F | 65 |
